pIC50: −log10 of the molar value.
Test system: 885724-159-R-J1-PDC complex spheroid viability
Assay: Anticancer human tumor 885724-159-R-J1-PDC patient-derived pancreatic adenocarcinoma cell line growth inhibition [POLQ]
Settings: for pIC50: curve of first compound; for viability, T/C: stronger effect = lower value
How it was run: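 Growth inhibition in 3D: complex spheroids (tumor PDC, HUVEC, MSC) treated with POLQ inhibitor combinations; where Cmax unknown, highest tested concentration 10 microM, except SN-38 at 1 microM.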
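Further: spheroids exposed to compounds for 7 days.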

For C#Cc1c(F)ccc2cc(O)cc(-c3ncc4c(N5CC6CCC(C5)N6)nc(OCC56CCCN5CC(F)C6)nc4c3F)c12 (configuration not stated) + Nc1ccc(C#CCN(C(=O)Cc2ncc(C(F)(F)F)cc2C(F)(F)F)c2ccc(F)cc2)nn1, the pIC50 (second compound 0.0316 µM) was 5.66, the pIC50 (second compound 0.1 µM) was 5.49 and the pIC50 (second compound 0.316 µM) was 5.56. The pIC50 (second compound 1 µM) was 5.53, the pIC50 (second compound 3.16 µM) was 5.52 and the pIC50 (second compound 10 µM) was 5.52. For the same compound, the viability, T/C (second compound 0.0316 µM, first compound 0.0316 µM) was 90.8%, the viability, T/C (second compound 0.0316 µM, first compound 0.1 µM) was 92.6% and the viability, T/C (second compound 0.0316 µM, first compound 0.316 µM) was 90.7%. The viability, T/C (second compound 0.0316 µM, first compound 1 µM) was 64.2%, the viability, T/C (second compound 0.0316 µM, first compound 3.16 µM) was 44.2% and the viability, T/C (second compound 0.0316 µM, first compound 10 µM) was 23.8%. The viability, T/C (second compound 0.1 µM, first compound 0.0316 µM) was 95.9%, the viability, T/C (second compound 0.1 µM, first compound 0.1 µM) was 100% and the viability, T/C (second compound 0.1 µM, first compound 0.316 µM) was 93.9%. It also gave a viability, T/C (second compound 0.1 µM, first compound 1 µM) of 73%, a viability, T/C (second compound 0.1 µM, first compound 3.16 µM) of 52.1% and a viability, T/C (second compound 0.1 µM, first compound 10 µM) of 25.3%. It also gave a viability, T/C (second compound 0.316 µM, first compound 0.0316 µM) of 116%, a viability, T/C (second compound 0.316 µM, first compound 0.1 µM) of 88.4% and a viability, T/C (second compound 0.316 µM, first compound 0.316 µM) of 84.3%. The viability, T/C (second compound 0.316 µM, first compound 1 µM) was 71.2%, the viability, T/C (second compound 0.316 µM, first compound 3.16 µM) was 50.6% and the viability, T/C (second compound 0.316 µM, first compound 10 µM) was 23.4%. For the same compound, the viability, T/C (second compound 1 µM, first compound 0.0316 µM) was 89.9%, the viability, T/C (second compound 1 µM, first compound 0.1 µM) was 96.6% and the viability, T/C (second compound 1 µM, first compound 0.316 µM) was 86.7%. The viability, T/C (second compound 1 µM, first compound 1 µM) was 71.3%, the viability, T/C (second compound 1 µM, first compound 3.16 µM) was 49.6% and the viability, T/C (second compound 1 µM, first compound 10 µM) was 24.2%. The viability, T/C (second compound 3.16 µM, first compound 0.0316 µM) was 85.3%, the viability, T/C (second compound 3.16 µM, first compound 0.1 µM) was 87.2% and the viability, T/C (second compound 3.16 µM, first compound 0.316 µM) was 89.1%. It also gave a viability, T/C (second compound 3.16 µM, first compound 1 µM) of 75.9%, a viability, T/C (second compound 3.16 µM, first compound 3.16 µM) of 49.5% and a viability, T/C (second compound 3.16 µM, first compound 10 µM) of 24.5%. For the same compound, the viability, T/C (second compound 10 µM, first compound 0.0316 µM) was 98.6%, the viability, T/C (second compound 10 µM, first compound 0.1 µM) was 89% and the viability, T/C (second compound 10 µM, first compound 0.316 µM) was 96.8%. The viability, T/C (second compound 10 µM, first compound 1 µM) was 72.6%, the viability, T/C (second compound 10 µM, first compound 3.16 µM) was 50.4% and the viability, T/C (second compound 10 µM, first compound 10 µM) was 22.9%.
